Experimental data from patent US20160077077A1, “Zinc Fluorescent Probe” (The Procter & Gamble Company, priority 2014, published 2016).

How the values were obtained:
[1] = Metal ion sensing (fluorescence response of Compound R3 to Zn^2+)
Experimental: (§1) The procedure for metal ion sensing is described. Solutions of the metal ions (10.0 mM) are prepared in deionized water. A stock solutions of Compound R3 (0.2 mM) is prepared in ethanol and then diluted to 20 μM with ethanol-water (1: 1, v/v, pH 7.04) for spectral measurement. For titration experiments, a 2.0 mL solution of Compound R3 (20 μM) is filled in a quartz optical cell of 1 cm optical path length. Zn^2+ stock solution is added into the quartz optical cell gradually by micro-pipette. Spectral data is recorded at 5 min after addition. In selectivity experiments, test samples are prepared by placing appropriate amounts of metal ion stock into 2.0 mL solution of R3 (20 μM). For fluorescence measurements, excitation is provided at 560 nm, while emission is collected from 565 nm to 700 nm.

[2] = Metal ion sensing (fluorescence response of Compound R3 to Hg^2+); conditions: excitation 560 nm
Experimental: as §1, with “A stock solutions of Compound R3 (0.2 mM) is prepared in ethanol and then diluted to 20 μM with ethanol-water (1: 1, v/v, pH 7.04) for spectral measurement.” left out

[3] = Metal ion sensing (fluorescence response of Compound R3 to Ca^2+); conditions: Compound R3 2.0 × 10^−5M + Ca^2+ 20.0 × 10^−5M, ethanol-PBS (1:1, v/v, pH 8.04), excitation 560 nm
Experimental: as §1, with “A stock solutions of Compound R3 (0.2 mM) is prepared in ethanol and then diluted to 20 μM with ethanol-water (1: 1, v/v, pH 7.04) for spectral measurement.” left out

[4] = Metal ion sensing (fluorescence response of Compound R3 to other metal ions); conditions: excitation 560 nm
Experimental: as §1, with “A stock solutions of Compound R3 (0.2 mM) is prepared in ethanol and then diluted to 20 μM with ethanol-water (1: 1, v/v, pH 7.04) for spectral measurement.” left out

HeLa cells = test: Fluorescence imaging of intracellular Zn^2+ (CLSM); assay type: cell-based; conditions: λex 543 nm, emission 560-660 nm
Experimental: Confocal fluorescence imaging is performed with an OLYMPUS IX81 laser scanning microscope and a 60 ×oil-immersion objective lens. The microscope is equipped with multiple visible laser lines (405, 488, 543 nm). Images are collected and processed with Olympus FV10-ASW software.
The HeLa cell line is provided by Biochemistry and Cell Biology (China). Cells are grown in DMEM (Dulbecco's modified Eagle's medium) supplemented with 10% FBS (Fetal Bovine serum) and 5% CO2 at 37° C.
HeLa cells ([…]) are plated on […] glass cover slips and allowed to adhere for 24 hours. 10 μM of Compound R3 in the culture media containing 0.2% (v/v) DMSO is added to the cells. The cells are incubated at 37° C. for 30 min, and washed with PBS three times to remove the excess R3 probe and bathed in PBS (2 mL) before imaging. After washing with PBS (2 mL×3) to remove the excess probe, the cells are treated with 50 μM Zinc lactate for 30 min. Excitation of Compound R3 loaded cells at 543 nm is carried out with a semiconductor laser, and emission is collected at 560-660 nm (single channel).

[5] = test system: Streptococcus mutans (ATCC® 700610™); test: Fluorescence imaging of Zn^2+ in bacteria (CLSM); assay type: cell-based; conditions: λex 543 nm
Experimental: The Streptococcus mutans is prepared by inoculating the single colony from the BHI agar plate into 5 mL BHI broth and incubating at 37° C. for 48 hours. The Streptococcus mutans are separately stained with 10 μM of Compound R3 at 37° C. for 60 min.
FIG. 2a 2f are CLSM images of Streptococcus mutans (ATCC® 700610™) cells. FIGS. 2a, 2b, and 2c are said cells incubated with 10 μM of inventive Compound R3 for 60 min to assess base level background fluorescence noise. FIGS. 2d, 2e, and 2f are cells from the same sample pool subsequently incubated with 50 μM Zn^2+ for 60 min. And then red channel emission is collected at 560-660 nm for FIGS. 2b and 2e (λex=543 nm), while FIGS. 2a and 2d are bright-field images. FIG. 2c is an overlay of FIG. 2a and FIG. 2b, while FIG. 2f is an overlap of FIG. 2d and FIG. 2e.

[6] = Assessing Zn chelation effectiveness (R3 fluorescence with various zinc compounds)
Experimental: Another application of the composition of the present invention is assessing the effectiveness of a zinc chelator or a zinc chelating system. One aspect of the invention provides a method of assessing the Zn^2+ chelating effectiveness of Zn^2+ chelator or a Zn^2+ chelating system comprising the steps: (a) incubating the Zn^2+ chelator or a Zn^2+ chelating system with a compound of the present invention; (b) shining excitation light to the incubated Zn^2+ chelator or a Zn^2+ chelating system; and (c) detecting light emission from the compound from 560 nm to 660 nm.
There are at least three variables that may affect zinc chelation. Firstly, the inherent characteristic of any particularly zinc chelator compound. Such compounds include lactate, sulfate, nitrate, chloride, citrate, anions, and the like. Mechanism of actions may include ionic interaction (as in a salt) or covalent binding. Another variable is the concentration of one or more zinc chelators in a zinc chelating system. Generally, the more of a zinc chelator the more zinc chelation is observed. […]
Table 2 is the fluorescent relative intensity of inventive Compound R3 (5.0×10^−5 M) upon the addition of various zinc compounds. Each sample contains the same level of zinc ion (5.0×10^−4 M) in H2O/DMSO (1000:1, V/V) solution, with fluorescence assessed at an excitation of 560 nm.

| SMILES | Fluorescence of the solution without metal ion ([1]; Compound R3 20 μM in control ethanol-water (1:1, v/v, pH 7.04), no Zn^2+) | Fluorescence at 580 nm on addition of Zn^2+ ([1]; Compound R3 20 μM, ethanol-water (1:1, v/v, pH 7.04), Zn^2+ 0-12 eq, excitation 560 nm) | Fluorescence intensity in presence of Zn^2+ (selectivity) ([1]; Compound R3 20 μM, ethanol-water (1:1, v/v, pH 7.04), excitation 560 nm) | Peak Fluorescence Intensity (a.u.) at 570-580 nm ([1]; Compound R3 2.0 × 10^−5M + Zn^2+ 20.0 × 10^−5M, ethanol-PBS (1:1, v/v, pH 8.04), excitation 560 nm) [a.u.] | Fluorescence intensity in presence of Hg^2+ (selectivity) ([2]; Compound R3 20 μM, ethanol-water (1:1, v/v, pH 7.04)) | Peak Fluorescence Intensity (a.u.) at 570-580 nm ([2]; Compound R3 2.0 × 10^−5M + Hg^2+ 20.0 × 10^−5M, ethanol-PBS (1:1, v/v, pH 8.04)) [a.u.] | Peak Fluorescence Intensity (a.u.) at 570-580 nm [3] [a.u.] | Fluorescence intensity in presence of other transition and heavy metal ions (selectivity) ([4]; Compound R3 20 μM, ethanol-water (1:1, v/v, pH 7.04), K^+, Ag^+, Ca^2+, Mg^2+, Pb^2+, Ni^2+, Mn^2+, Co^2+, Cd^2+, Cu^2+, Fe^2+, Cr^3+, Li^+, Ba^2+, Fe^3+, Na^+) | Peak Fluorescence Intensity (a.u.) at 570-580 nm ([4]; Compound R3 2.0 × 10^−5M + other metal ions (K^+, Ag^+, Ca^2+, Mg^2+, Pb^2+, Ni^2+, Mn^2+, Co^2+, Cd^2+, Cu^2+, Fe^2+, Cr^3+, Li^+, Ba^2+, Fe^3+, Na^+) 20.0 × 10^−5M, ethanol-PBS (1:1, v/v, pH 8.04)) [a.u.] | Intracellular fluorescence in HeLa cells after Zn^2+ (HeLa cells; 10 μM Compound R3 30 min at 37° C., then 50 μM Zn^2+ 30 min) | Fluorescence emission in HeLa cells without Zn^2+ (HeLa cells; 10 μM Compound R3, 30 min, 37° C., no Zn^2+ (FIG. 1b)) | Fluorescence in Streptococcus mutans after Zn^2+ ([5]; 10 μM Compound R3 60 min at 37° C., then 50 μM Zn^2+ 60 min, emission 560-660 nm (FIG. 2e)) | Fluorescence emission in Streptococcus mutans without Zn^2+ ([5]; 10 μM Compound R3, 60 min, 37° C., emission 560-660 nm, no Zn^2+ (FIG. 2b)) | Peak Fluorescence Intensity (a.u.) at 570-580 nm ([6]; Compound R3 5.0×10^−5 M only (control, no zinc), H2O/DMSO (1000:1, V/V), excitation 560 nm) [a.u.] | Relative degree of zinc chelation effectiveness ([6]; among the zinc chelators tested (lactate, sulfate, citrate), from Table 2) |
| --- | --- | --- | --- | --- | --- | --- | --- | --- | --- | --- | --- | --- | --- | --- | --- |
| CCN(CC)c1ccc2c(c1)Oc1cc(N(CC)CC)ccc1C21c2ccccc2C(=O)N1CCNCc1ccc[nH]1 [Compound R3, 2-(2-(((1H-pyrrol-2-yl)methyl)amino)ethyl)-3′,6′-bis(diethylamino)spiro[isoindoline-1,9′-xanthen]-3-one] | non fluorescent | turned on and grew drastically | greatest fluorescence intensity | 0.7 | greatest fluorescence intensity | 1.0 | 0.25 | minimal fluorescence intensity | <0.1 | significant fluorescence increase | no fluorescence emission | significant fluorescence increase | no fluorescence emission | 0.1 |  |
| CC(O)C(=O)[O-].CC(O)C(=O)[O-].[Zn+2] (stereo not drawn) [zinc lactate, reference compound] |  |  |  |  |  |  |  |  |  |  |  |  |  |  | weakest relative degree of zinc chelation effectiveness |
